Experimental findings from US10765654B2, “Methods and compounds for treating cancer” (University of Vermont and State Agricultural College, priority 2011, dated 2020) are described below.

One test relates to GBM8 GSCs. The test is described as follows: Growth dynamics, unbiased trypan blue exclusion based cytometry. The class given is cell-based, human. Conditions: GTA; GBM8 cells grown in DM. The protocol: Growth dynamics were assessed using unbiased trypan blue exclusion based cytometry. Cells were plated (at 10,000 cells per well of a 24-well plate) directly in the absence or presence of 0.25% GTA. After 1, 3, and 5 days of treatment, cells were typsinized, collected via centrifugation, and counted according to the manufacturer's instructions (Countess Automated Cell Counter; Invitrogen Life Technologies; Carlsbad, Calif.).
Growth dynamics was determined as described in prior examples herein.

A further test concerns OG35 GSCs. The test is described as follows: Orthotopic graft in athymic mice, comparison of priming, concurrent and salvage regimens. The class given is in vivo. Conditions: OG35 GSC engrafted mice; priming with GTA two days prior to TMZ treatment. The protocol:
Cells (2,500 cells in 4 μl) were injected into the right striatum (1 mm anterior, 1.5 mm lateral to bregma, 3.5 mm deep) of adult athymic mice (8-week-old, 25-28 g). GTA (5.8 g/kg plus 10% v/v Ora-Sweet SF® (Paddock Laboratories, Minneapolis, Minn.) was administered intragastrically daily starting on the third post-operative day. TMZ (20 mg/kg) was administered intragastrically in an oral suspension vehicle containing 2.5 mg/ml Povidone K30, 0.013% citric acid, 50% Ora-Plus® (Paddock Laboratories, Minneapolis, Minn.), 50% Ora-Sweet SF® (Paddock Laboratories, Minneapolis, Minn.) on days 5, 7, 9, 11, and 13. Mice receiving the combined GTA/TMZ therapy received the TMZ in the morning (˜7-8 AM) and GTA in the evening (˜6-7 PM).
Orthotopic grafting was performed as described above in Example 6. In addition to the treatments described above, the following treatments were tested: 1) concurrent (GTA and TMZ on days 5, 7, 9, 11, 13, with GTA alone on days 6, 8, 10, 12 and continuous GTA afterwards), and 2) salvage (GTA administered daily after single course of TMZ on days 5, 7, 9, 11, and 13).

The test system of the next test is OG33 cells. Put plainly: Immunocytochemistry after 5 days in differentiation medium with or without GTA. The class given is cell-based, human. Conditions: 0.25% GTA, 5 days in DM. As for the experimental part:
(§1) Immunocytochemistry was performed as described (Perez-Martinez & Jaworski (2005) J Neurosci 25:4917-29). Briefly, OG33 and OG35 cells were plated into differentiaion medium (DMEM, 10% FBS) in the absence or presence of 0.25% GAT and fixed with 2% paraformaldehyde after 5 days. Antibodies: rabbit anti-human ASPA (1500×; GTX13389; GeneTex, Irvine, Calif.), Rabbit anti-mouse ASPA (2,000× for western blot) (Madhavarao et al., 2004 Comp Neurol 472:318-29), rabbit anti-mouse AceCS1 (15,000× western blot; 1,500× immunocytochemistry) (Ariyannur et al. 2010 J Comp Neurol 518:2952-77), rabbit anti-mouse 2′,3′-cyclic nucleotide 3′-phosphodiesterase (CNPase; 500×sc-30158; Santa Cruz Biotechnology, Santa Cruz, Calif.). Cy3- (500×) conjugated secondary antibodies were obtained from Jackson ImmunoResearch (West Grove, Pa.). Immunocytochemistry for Histone 3/Tubulin/poly(ADP-ribose) polymerase (PARP) was performed using the PathScan Multiplex IF kit per manufacturer's instructions (Cell Signaling Technology, Danvers, Mass.).

The subject of another test is OG35 cells. Described as above. Conditions: 0.25% GTA, 5 days in DM. The class given is cell-based, human. As for the experimental part: as §1
The next test has as its system ASPA in OG35 cells. Put plainly: Western blot of ASPA expression. The class given is cell-based, human. The conditions noted are these: 0.25% GTA. The protocol:
(§2) SDS-PAGE (25 μg protein from whole cell lysates) and western blotting were performed as previously described (Lluri et al. 2008 Exp Cell Res 314:11-24). Cytosol and nuclear fractions were isolated according to standard protocols. Antibodies: rabbit anti-mouse ASPA (2,000×), (Madhavarao et al. 2004 Comp Neurol 472:318-29) rabbit anti-human ASPA (5,000×; GTX1338; GeneTex, Irvine, Calif.), goat anti-human actin (1,000×, sc-1616, Santa Cruz Biotechnology, Santa Cruz, Calif.), rabbit anti-human GAPDH (5,000×, sc-25778, Santa Cruz Biotechnology, Santa Cruz, Calif.), mouse anti-human histone H1 (250×, sc-8030; Santa Cruz Biotechnology, Santa Cruz, Calif.). Species-specific HRP—(3,000×) conjugated secondary antibodies were obtained from Jackson ImmunoResearch (West Grove, Pa.). Immunocomplexes were visualized by enhanced chemiluminescence (PerkinElmer Life Sciences; Boston, Mass.) and densitometry performed using Quantity One software (Bio-Rad; Hercules, Calif.).
(§3) SDS-PAGE (25 μg protein from whole cell lysates) and western blotting were performed as previously described in Example 1.
(In western blotting, separated proteins are transferred to a membrane and probed.)

A further test concerns ASPA in OG33 cells. Put plainly: Western blot of ASPA expression. Type of test: cell-based, human. The conditions noted are these: 0.25% GTA. As for the experimental part:
as §2, §3

SMILES strings stand for the structures.

As to `CC(=O)OCC(COC(C)=O)OC(C)=O` [GTA, glyceryltriacetate], the Growth dynamics result with GBM8 GSCs is recorded as “reduced growth dynamics”. In addition, in the test with OG35 GSCs, the “Survival versus TMZ alone” value is on record as “increased survival over TMZ alone”. Further, in the test on OG33 cells, the “Apoptosis (cleaved PARP, Asp214)” value is reported as “no cleaved PARP” and the “Proliferation (phospho-histone H3 [Ser 10])” value is reported as “decreased phospho-histone H3”. Also, in the test on OG35 cells (OG35), the “Apoptosis (cleaved PARP, Asp214)” value is recorded as “no cleaved PARP”; the “Nuclear expression of ASPA” value is recorded as “increase the nuclear expression of ASPA”; the “Proliferation (phospho-histone H3 [Ser 10])” value is “decreased phospho-histone H3”. Besides, the “GSC differentiation (expression of CNPase, a marker of mature oligodendrocytes)” value in the test on OG35 cells (primarily in OG35 cells) was “increased expression of CNPase”. The “ASPA expression (Western blot)” value in the test with ASPA in OG35 cells is “decreased ASPA expression”. Further, in the test on ASPA in OG33 cells, the “Expression of novel 26 kDa ASPA species (Western blot)” value was “induced the expression of a novel 26 kDa species” and the “Expression of the putative 36 kDa ASPA protein (Western blot)” value is “no effect”.
